Among the data in patent publication US7868005B2, “Pyrazinyl substituted piperazine-piperidines with CXCR3 antagonist activity” (Schering Corporation, priority 2005, dated 2011) are IC50 values, retold here.

One may read the IC50 as the concentration needed to halve the response being measured.

The structures appear in SMILES notation. Where only a bound is given, the exact number is not on record here.

The target in the first assay is T1, human CXCR3 (N-delta 4) (Homo sapiens, UniProt P49682).
T1 construct: CD8 leader (N); Flag; expressed in transfected cells; membranes prepared
T1 sequence (P49682 5-368 limits assumed): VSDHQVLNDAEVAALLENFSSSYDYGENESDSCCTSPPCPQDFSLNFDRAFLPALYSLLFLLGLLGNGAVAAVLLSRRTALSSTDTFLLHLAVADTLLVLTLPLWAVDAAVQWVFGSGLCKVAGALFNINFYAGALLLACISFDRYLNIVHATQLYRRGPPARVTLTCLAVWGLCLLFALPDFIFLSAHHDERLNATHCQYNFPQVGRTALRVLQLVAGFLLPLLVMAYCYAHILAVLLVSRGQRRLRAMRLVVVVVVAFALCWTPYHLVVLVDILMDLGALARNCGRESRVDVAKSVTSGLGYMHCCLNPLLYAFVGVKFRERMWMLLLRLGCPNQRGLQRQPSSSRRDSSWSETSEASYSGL
Kind of assay: Human CXCR3 (N-delta 4) Scintillation Proximity Assay (SPA), [125I] IP-10 binding to Ba/F3-hCXCR3 membranes. The settings on record: IC50 rating, Table 1; read-out: IC50. The source says:
The inventive compounds can readily be evaluated to determine activity at the CXCR3 receptors by known methods, such as, for example, development of a human CXCR3 (N-delta 4) Binding Assay.
Cloning and Expression of Human CXCR3 (N-delta 4):
The DNA encoding human CXCR3 was cloned by PCR using human genomic DNA (Promega, Madison, Wis.) as a template. The PCR primers were designed based on the published sequence of human orphan receptor GPR9 (1) with incorporated restriction sites, a Kozak consensus sequence, CD8 leader and Flag tag. The PCR product was subcloned into the mammalian expression vector pME18Sneo, a derivative of the SR-alpha expression vector (designated as pME18Sneo-hCXCR3 (N-delta 4).
IL-3-dependent mouse pro-B cells Ba/F3 were transfected by electroporation in 0.4 ml Dulbecco's PBS containing 4×10^6 cells with 20 μg of pME18Sneo-hCXCR3 (N-delta 4) plasmid DNA. Cells were pulsed at 400 Volts, 100 OHMs, 960 μFd. The transfected cells were under selection with 1 mg/ml G418 (Life Technologies, Gaithersburg, Md.). G418-resistant Ba/F3 clones were screened for CXCR3 expression by specific binding of [^125I] IP-10 (NEN Life Science Products, Boston, Mass.).
Preparation of Ba/F3-hCXCR3 (N-delta 4) Membranes:
Ba/F3 cells expressing human CXCR3 (N-delta 4) were pelleted and resuspended in the lysis buffer containing 10 mM HEPES, pH 7.5 and Complete® protease inhibitors (1 tablet per 100 ml) (Boehringer Mannheim, Indianapolis, Ind.) at a cell density of 20×10^6 cells per ml. After 5 minute incubation on ice, cells were transferred to 4639 cell disruption bomb (Parr Instrument, Moline, Ill.) and applied with 1,500 psi of nitrogen for 30 minutes on ice. Large cellular debris was removed by centrifugation at 1,000×g. Cell membrane in the supernatant was sedimented at 100,000×g. The membrane was resuspended in the lysis buffer supplemented with 10% sucrose and stored at −80° C. Total protein concentration of the membrane was determined by BCA method from Pierce (Rockford, Ill.).
Human CXCR3 (N-delta 4) Scintillation Proximity Assay (SPA):
For each assay point, 2 μg of membrane was preincubated for 1 hr with 300 μg wheat germ agglutinin (WGA) coated SPA beads (Amersham, Arlington Heights, Ill.) in the binding buffer (50 mM HEPES, 1 mM CaCl2, 5 mM MgCl2, 125 mM NaCl, 0.002% NaN3, 1.0% BSA) at room temperature. The beads were spun down, washed once, resuspended in the binding buffer and transferred to a 96-well Isoplate (Wallac, Gaithersburg, Md.). 25 pM of [^125I] IP-10 with tested compounds in a series of titration were added to start the reaction. After 3 hr reaction at room temperature, the amount of [^125I] IP-10 bound to the SPA beads was determined with a Wallac 1450 Microbeta counter.
The Ki ratings for the various compounds of the present invention are given in the afore-mentioned Table 1. From these ratings and value ranges, it would be apparent to the skilled artisan that the compounds of the invention have excellent utility as CXCR3 receptor antagonists.
In the case of `CC[C@H]1CN(c2nc(N)c(C(=O)NC3CC3)nc2Cl)CCN1C1CCN(Cc2ccc(Cl)cc2OCCO)CC1` [compound 85], the IC50 is less than 0.025 µM. Consider `CC[C@H]1CN(c2nc(N)c(C(=O)NC3CC3)nc2Cl)CCN1C1CCN(Cc2ccc(C#N)cc2OCCO)CC1` [compound 86], for which the IC50 was less than 0.025 µM. Same read-out and setting: next, `CC[C@H]1CN(c2nc(N)c(C(=O)NC3CC3)nc2Cl)CCN1C1CCN(Cc2ccc(Cl)cc2CN)CC1` [compound 87]: less than 0.025 µM; `CC[C@H]1CN(c2nc(N)c(C(=O)NC3CC3)nc2Cl)CCN1C1CCN(Cc2ccc(Cl)cc2C#N)CC1` [compound 88]: less than 0.025 µM; `CC[C@H]1CN(c2nc(N)c(C(=O)NC3CC3)nc2Cl)CCN1C1CCN(Cc2ccc(C#N)cc2OCCOC)CC1` [compound 89]: less than 0.025 µM.

For `CC[C@H]1CN(c2nc(N)c(C(=O)NC3CC3)nc2Cl)CCN1C1CCN(Cc2ccc(Cl)cc2C(=O)OC)CC1` [compound 90], the IC50 was less than 0.025 µM.

As to `CCC1CN(c2nc(N)c(C(=O)NC3CC3)nc2Cl)CCN1C1CCN(C(CCN)c2ccc(Cl)cc2)CC1` (stereo not shown) [compound 91], the concentration for half-maximal inhibition (IC50) was less than 0.025 µM. Still for that read-out and setting: in the case of `CC[C@H]1CN(c2nc(N)c(C(=O)NC3CC3)nc2Cl)CCN1C1CCN(Cc2ccc(C#N)cc2OCC(=O)NC2CC2)CC1` [compound 92] it was less than 0.025 µM; in that of `CC[C@H]1CN(c2nc(N)c(C(=O)NC3CC3)nc2Cl)CCN1C1CCN(Cc2ccc(C#N)cc2OCCN2CCCC2=O)CC1` [compound 93], less than 0.025 µM; in that of `C[C@@H]1CN(C2CCN(Cc3ccc(Cl)cc3F)CC2)[C@@H](C)CN1c1cnc(C(=O)NC2CC2)cn1` [compound 94], 0.025 to 0.1 µM. On the same count and under the same terms, next, `CC[C@H]1CN(c2nc(N)c(C(=O)NC3CC3)nc2Cl)CCN1C1CCN(Cc2ccc(Cl)cc2)CC1O` (stereo partly shown) [compound 95]: 0.025 to 0.1 µM; `CC[C@H]1CN(c2nc(N)c(C(=O)NC3CC3)nc2Cl)CCN1C1CCN(C(CCNC(=O)OC(C)(C)C)c2ccc(Cl)cc2)CC1` (stereo partly shown) [compound 96]: more than 0.1 µM. On the same count and under the same terms, in the case of `CC[C@H]1CN(c2nc(N)c(C(=O)NC3CC3)nc2Cl)CCN1C1CCN(Cc2ccc(OCC(N)=O)cc2)CC1` [compound 97] it was more than 0.1 µM; in that of `CC[C@H]1CN(c2nc(N)c(C(=O)NC3CC3)nc2Cl)CCN1C1CCN(Cc2ccc(Cl)cc2)CC1O` (stereo partly shown) [compound 98], more than 0.1 µM; in that of `CC[C@H]1CN(c2nc(N)c(C(=O)NCCOc3ccccc3)nc2Cl)CCN1C1CCN(Cc2ccc(C#N)cc2)CC1` [compound 99], less than 0.025 µM. Regarding `CC[C@H]1CN(c2nc(N)c(C(=O)NCCS(C)(=O)=O)nc2Cl)CCN1C1CCN(Cc2ccc(Cl)cc2)CC1` [compound 100], the IC50 was less than 0.025 µM.

As to `CC[C@H]1CN(c2nc(N)c(C(=O)NCCS(C)(=O)=O)nc2Cl)CCN1C1CCN(Cc2ccc(Cl)cc2)CC1` [compound 101], the IC50 is 0.025 to 0.1 µM. As to `CCNC(=O)c1nc(Cl)c(N2CCN(C3CCN(Cc4ccc(Cl)cc4)CC3)[C@@H](CC)C2)nc1N` [compound 102], the IC50 was less than 0.025 µM. On to `CCNC(=O)c1nc(Cl)c(N2CCN(C3CCN(Cc4ccc(Cl)cc4F)CC3)[C@@H](CC)C2)nc1N` [compound 103], for which the IC50 was less than 0.025 µM. Same read-out and setting: in the case of `CCNC(=O)c1nc(Cl)c(N2CCN(C3CCN(C(C)(C)c4ccc(Cl)cc4)CC3)[C@@H](CC)C2)nc1N` [compound 104] it was 0.025 to 0.1 µM. With `CC[C@H]1CN(c2nc(N)c(C(=O)NCC(=O)O)nc2Cl)CCN1C1CCN(Cc2ccc(Cl)cc2)CC1` [compound 105], the IC50 was more than 0.1 µM.

As to `CCNC(=O)c1nc(Cl)c(N2CCN(C3CCN(C(C)(C)c4ccc(Cl)cc4)CC3)[C@@H](C)C2)nc1N` [compound 106], the IC50 was more than 0.1 µM. Same read-out and setting: next, `CC[C@H]1CN(c2nc(N)c(C(=O)NCCO)nc2Cl)CCN1C1CCN(Cc2ccc(Cl)cc2CO)CC1` [compound 107]: less than 0.025 µM; `CC[C@H]1CN(c2nc(N)c(C(=O)NCCO)nc2Cl)CCN1C1CCN(Cc2ccc(Cl)cc2/C(N)=N\O)CC1` [compound 108]: less than 0.025 µM. The same measure, in the same setting: in the case of `CC[C@H]1CN(c2nc(N)c(C(=O)NCCO)nc2Cl)CCN1C1CCN([C@@H](CO)c2ccc(Cl)cc2)CC1` [compound 109] it was less than 0.025 µM; in that of `CC[C@H]1CN(c2nc(N)c(C(=O)NCCO)nc2Cl)CCN1C1CCN(Cc2ccc(Cl)cc2)CC1` [compound 110], less than 0.025 µM. Turning to `CC[C@H]1CN(c2nc(N)c(C(=O)NCCO)nc2Cl)CCN1C1CCN(Cc2ccc(Cl)cc2C(=N)N)CC1` [compound 111], the IC50 was less than 0.025 µM. Same read-out and setting: next, `CC[C@H]1CN(c2nc(N)c(C(=O)NCCO)nc2Cl)CCN1C1CCN(Cc2ccc(OC(F)(F)F)cc2)CC1` [compound 112]: less than 0.025 µM; `CC[C@H]1CN(c2nc(N)c(C(=O)NCCO)nc2Cl)CCN1C1CCN(Cc2ccc(Cl)cc2F)CC1` [compound 113]: less than 0.025 µM.

Consider `CCOC(=O)/N=C(\N)c1cc(Cl)ccc1CN1CCC(N2CCN(c3nc(N)c(C(=O)NCCO)nc3Cl)C[C@@H]2CC)CC1` [compound 114], for which the IC50 is less than 0.025 µM.

On to `CC[C@H]1CN(c2nc(N)c(C(=O)NCCO)nc2Cl)CCN1C1CCN(Cc2ccc(Cl)cc2OCCOC)CC1` [compound 115], for which the IC50 was less than 0.025 µM.

On to `CC[C@H]1CN(c2nc(N)c(C(=O)NCCO)nc2Cl)CCN1C1CCN([C@@H](CO)c2ccc(C#N)cc2)CC1` [compound 116], for which the 50% inhibitory concentration (IC50) is less than 0.025 µM. The same measure, in the same setting: next, `CC[C@H]1CN(c2nc(N)c(C(=O)NCCO)nc2Cl)CCN1C1CCN(Cc2ccc(C(=O)OC)cc2)CC1` [compound 117]: less than 0.025 µM.

`CC[C@H]1CN(c2nc(N)c(C(=O)NCCO)nc2Cl)CCN1C1CCN(Cc2ccc(OC(F)(F)F)cc2OCCOC)CC1` [compound 118]: the IC50 is less than 0.025 µM. On the same count and under the same terms, in the case of `CC[C@H]1CN(c2nc(N)c(C(=O)NCCO)nc2Cl)CCN1C1CCN(Cc2ccc(OC(F)(F)F)cc2OCCCCO)CC1` [compound 119] it was less than 0.025 µM; in that of `CC[C@H]1CN(c2nc(N)c(C(=O)NCCO)nc2Cl)CCN1C1CCN(Cc2ccc(Cl)cc2OCCNC(=O)OC(C)(C)C)CC1` [compound 120], less than 0.025 µM. Same read-out and setting: next, `CC[C@H]1CN(c2nc(N)c(C(=O)NCCO)nc2Cl)CCN1C1CCN(Cc2ccc(C#N)cc2)CC1` [compound 121]: less than 0.025 µM. On the same count and under the same terms, next, `CC[C@H]1CN(c2nc(N)c(C(=O)NCCO)nc2Cl)CCN1C1CCN([C@@H](CO)c2ccc(F)c(F)c2)CC1` [compound 122]: less than 0.025 µM. `CC[C@H]1CN(c2nc(N)c(C(=O)NCCO)nc2Cl)CCN1C1CCN(Cc2ccc(F)c(F)c2)CC1` [compound 123]: the IC50 was less than 0.025 µM.

Regarding `CC[C@H]1CN(c2nc(N)c(C(=O)NCCO)nc2Cl)CCN1C1CCN(Cc2ccc(Cl)cc2OCCO)CC1` [compound 124], the IC50 was less than 0.025 µM. Same read-out and setting: next, `CC[C@H]1CN(c2nc(N)c(C(=O)NCCO)nc2Cl)CCN1C1CCN(Cc2ccc(OC(F)(F)F)cc2OCCCO)CC1` [compound 125]: less than 0.025 µM.

Take `CC[C@H]1CN(c2nc(N)c(C(=O)NCCO)nc2Cl)CCN1C1CCN(Cc2ccc(OC)cc2)CC1` [compound 126]: the IC50 is less than 0.025 µM.

As to `CC[C@H]1CN(c2nc(N)c(C(=O)NCCO)nc2Cl)CCN1C1CCN(Cc2ccc(Cl)cc2C(N)=O)CC1` [compound 127], the IC50 was less than 0.025 µM. Same read-out and setting: next, `CC[C@H]1CN(c2nc(N)c(C(=O)NCCO)nc2Cl)CCN1C1CCN([C@H](CO)c2ccc(Cl)cc2)CC1` [compound 128]: less than 0.025 µM. Consider `CC[C@H]1CN(c2nc(N)c(C(=O)NCCO)nc2Cl)CCN1C1CCN(Cc2ccc(Cl)cc2OCCNC(=O)C(C)(C)C)CC1` [compound 129], for which the IC50 is less than 0.025 µM.

Staying with this assay, now noted: read-out: IC50.
Consider `CC[C@H]1CN(c2nc(N)c(C(=O)NCCO)nc2Cl)CCN1C1CCN(Cc2ccc(Cl)cc2CO)CC1` [compound 107], for which the IC50 stood at 0.0002 µM.
